Measurements as given in patent US20230255869A1, “FATTY ACID DERIVATIVE, PRODUCTION PROCESS THEREFOR, HAIR COMPOSITION AND HAIR-TREATMENT METHOD” (CHEMYUNION LTDA., priority 2020, published 2023).

Experiments:
[1] = Evaluation of the cuticular region of hair fibers by scanning electron microscopy (SEM); conditions: conditioner plus 1% active; bleached and dyed fibers; 1100x
Protocol: The tests to evaluate the effectiveness of the shine on locks of hair were carried out with standardized fibers of straight, dark brown hair, provided by International Hair Importers— USA.
The locks were washed with anti-residue shampoo and dried naturally (24±1h).
After the pre-treatment, the locks of hair from the groups G1, G2, G3 and G4 (average weight of 2 g per lock), were subjected to the process of chemical bleaching.
To carry out the process, a bleaching mixture was prepared with 15 g of bleaching powder and 30 g of hydrogen peroxide 30 volumes. This mixture was evenly applied to the locks of hair. After application, the locks were wrapped in aluminum foil and left to rest for 45 minutes. After the time of action of the bleaching mixture, the locks were washed and rinsed abundantly with running water (2 minutes) and received the application of a standard conditioner. After 2 minutes of rest, for the conditioner to work, the locks were rinsed again. The locks were dried with hot air from the dryer.
The whole process was repeated two more times, totaling three bleachings. […]
The evaluation of the surface of the hair fibers (cuticle region) was performed using a scanning electron microscope (SEM), model 6460 LV (JEOL). The study is based on capturing images (1100× magnification) of 10 capillary fibers randomly selected from the evaluated groups. […]

[2] = Shine evaluation of hair locks treated with conditioner (SAMBA Hair System, Reich-Robbins luster)
Protocol: The tests for evaluating the effectiveness in the shine of locks of hair were carried out with standardized fibers of CaucasianU, brown, straight hair, supplied by International Hair Importers— USA, model most used for these types of tests (Table 1).
The locks were washed with anti-residue shampoo and dried naturally (24±1h) before treatment.
The formulations were applied according to the protocol described below: For the locks in group G1 (Control), shampoo was applied in a standardized amount of SLES solution (8.1% active) on wet hair and gently massaged for 1 minute. Then rinsed for 1 minute.
For locks in group G2 (Placebo) and with the actives: G3 (Ricinoleamide), G4 (Cyclometicone), G5 (Phenyltrimethicone), G6 (Dimethicone), G7 (Aminopropyl phenyltrimethicone) and G8 (Propylene glycol dibenzoate) and G9 (Ricinoleate mono- and diesters), shampoo was applied in a standardized amount of placebo/standard shampoo to wet hair and gently massaged for 1 minute. Then rinsed for 1 minute. After rinsing the hair, the conditioner (3.0±0.2 g) was applied to the entire length of the hair, massaging and untangling the hair. Leaving the product to act for 2 minutes and it was rinsed for 1 minute. This protocol was repeated once, and then four more times, for all groups according to their specific treatment, described in Table 1.
The locks were kept in a controlled environment at 23±2° C. and 50±5% relative humidity (R. H.), for at least 24 hours before the tests were started. The entire test period was carried out under the same environmental conditions.
The evaluation of hair shine was performed on three locks per group, using the equipment SAMBA Hair System of the company Bossa Nova Technologies, USA.
The locks of hair were positioned on a cylindrical support that slides into the interior of the equipment, in order to carry out the measurements.
The equipment successively captures two parallel images of the locks of hair. Specular image and diffuse image. The specular image is formed only by the light reflected by the hair surfaces (first and second) of reflection. This image contains the brightness information. The diffused image (diffuse) is formed only by the scattered light coming from inside the hair.
The SAMBA system program calculates parameters associated with the reflection and refraction of light, the most used parameter is Luster, which evaluates the real state and quality of the brightness of the object under study. This parameter can be calculated simultaneously through different formulas, and for this study the analysis data obtained by the Reich-Robbins formula was used.
For the statistical evaluation of the tests, analysis of variance (ANOVA) was used. Tukey's test was applied when analysis of variance detected significant differences between the groups. For comparative tests between before and after the same sample, the t-Test (Student) was used.

| Compound | integrity of the cuticular region (subjective SEM evaluation) vs Control and Placebo [1] | difference of shine value greater than Amino pfenyltrimethicone group ([2]; conditioner with 1% active, one treatment, vs Amino pfenyltrimethicone (1%)) | difference of shine value (after minus before one treatment) greater than Control group ([2]; conditioner with 1% active, one treatment, vs Control (SLES wash)) | difference of shine value greater than Cyclomethicone group ([2]; conditioner with 1% active, one treatment, vs Cyclomethicone (1%)) | difference of shine value greater than Dimethicone group ([2]; conditioner with 1% active, one treatment, vs Dimethicone (1%)) | difference of shine value greater than Phenyltrimethicone group ([2]; conditioner with 1% active, one treatment, vs Phenyltrimethicone (1%)) | difference of shine value greater than Placebo group ([2]; conditioner with 1% active, one treatment, vs Placebo conditioner) | difference of shine value greater than Propilene glycol dibenzoate group ([2]; conditioner with 1% active, one treatment, vs Propilene glycol dibenzoate (1%)) | difference of shine value greater than ricinoleate mono- and diesters group ([2]; conditioner with 1% active, one treatment, vs ricinoleate mono- and diesters (1%)) | efficiency in providing increased shine in the first application compared to other compounds ([2]; same concentrations, FIG. 1) |
| --- | --- | --- | --- | --- | --- | --- | --- | --- | --- | --- |
| CCCCCC[C@@H](O)C/C=C\CCCCCCCC(N)=O [Ricinoleamide, ricinoleamide] | greater preservation of the cuticular region | 93.4% | 78.4% | 78.4% | 52.7% | 56.7% | 84% | 95.1% | 54.0% | greater efficiency |
| phenyltrimethicone [reference compound] | preservation of the cuticular region |  |  |  |  |  |  |  |  |  |
